Patent publication US20110009421A1, “COMPOUND HAVING 6-MEMBERED AROMATIC RING” (TAKEDA PHARMACEUTICAL COMPANY LIMITED, priority 2008, published 2011)

Molecular target: T1, human GPR52 (Homo sapiens, UniProt Q9Y2T5)
T1 construct: expressed in transfected cells; host or cells: CHO (dhfr-) cells
Assay: Increased intracellular cAMP levels in human GPR52 expression CHO cells (AlphaScreen cAMP assay)
Format: cell-based
Conditions: 1 μM test compound, 30 min at 37° C., human GPR52 expression CHO (dhfr−) cells; intracellular cAMP level, 100% = 1 μM 3-(6-(2-(3,4-dimethoxyphenyl)ethoxy)pyridin-2-yl)-N-(2-pyrrolidin-1-ylethyl)benzamide, 0% = DMSO
Method: Increased Intracellular cAMP Levels in Human GPR52 Expression CHO Cells
1×10^4 human GPR52 expression CHO (dhfr−) cells were incubated with 1 μM test compound for 30 min at 37° C. in 30 μL assay buffer (HBSS (containing Ca^2+ and Mg^2+), 0.5% BSA, 100 μM IBMX, 100 μM Ro 20-1724, 5 mM HEPES (pH 7.55)) using an OptiPlate-384 (by PerkinElmer). The intracellular cAMP level was then assayed with an EnVision (by PerkinElmer) according to the protocol of the AlphaScreen cAMP Assay Kit (by PerkinElmer). The GPR52 agonist activity was calculated, assuming the intracellular cAMP level to be 100% in the presence of 1 μM of 3-(6-(2-(3,4-dimethoxyphenyl)ethoxy)pyridin-2-yl)-N-(2-pyrrolidin-1-ylethyl)benzamide obtained in Reference Example 39 and assuming the intracellular cAMP level to be 0% when DMSO was added instead of test compound.

T1 sequence (Q9Y2T5 whole entry): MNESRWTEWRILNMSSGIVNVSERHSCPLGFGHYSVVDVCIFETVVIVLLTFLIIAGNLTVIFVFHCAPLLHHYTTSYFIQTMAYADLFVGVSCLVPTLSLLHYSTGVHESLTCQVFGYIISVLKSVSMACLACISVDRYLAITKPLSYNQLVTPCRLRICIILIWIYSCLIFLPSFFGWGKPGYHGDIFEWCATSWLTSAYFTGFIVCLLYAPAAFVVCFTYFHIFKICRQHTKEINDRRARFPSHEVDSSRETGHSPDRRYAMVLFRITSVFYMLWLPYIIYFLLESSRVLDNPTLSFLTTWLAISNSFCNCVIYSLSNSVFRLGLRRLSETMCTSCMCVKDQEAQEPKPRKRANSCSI

SMILES	GPR52 agonist activity (%)
N#CCCNC(=O)c1cccc(-c2cccc(Oc3cc(Cl)cc(Cl)c3)n2)c1 [Working Example 121, N-(2-Cyanoethyl)-3-(6-(3,5-dichlorophenoxy)pyridin-2-yl)benzamide]	51
N#CCCNC(=O)c1cccc(-c2cccc(Oc3cccc(Cl)c3)n2)c1 [Working Example 125, 3-(6-(3-Chlorophenoxy)pyridin-2-yl)-N-(2-cyanoethyl)benzamide]	55
N#CCCNC(=O)c1cccc(-c2cccc(Oc3cncc(Cl)c3)n2)c1 [Working Example 134, 3-(6-((5-Chloropyridin-3-yl)oxy)pyridin-2-yl)-N-(2-cyanoethyl)benzamide]	48
COc1ccccc1CCNc1nccc(-c2cccc(C(=O)NCCN3CCCC3)c2)n1 [Working Example 138]	104
COc1ccc(CCNc2nccc(-c3cccc(C(=O)NCCN4CCCC4)c3)n2)cc1OC [Working Example 141]	113
O=C(NCCN1CCCC1)c1cccc(-c2ccnc(NCCc3cccc(F)c3)n2)c1 [Working Example 143]	72
O=C(NCCN1CCCC1)c1cccc(-c2ccnc(NCCc3cccc(C(F)(F)F)c3)n2)c1 [Working Example 146, N-(2-pyrrolidin-1-ylethyl)-3-[2-({2-[3-(trifluoromethyl)phenyl]ethyl}amino)pyrimidin-4-yl]benzamide]	135
O=C(NCCN1CCCC1)c1cccc(-c2ccnc(NCCc3cccs3)n2)c1 [Working Example 152]	64
O=C(NCCN1CCCC1)c1cccc(-c2ccnc(NCCc3ccc(F)c(Cl)c3)n2)c1 [Working Example 164]	107
O=C(NCCN1CCCC1)c1cccc(-c2ccnc(NCCc3ccc(Cl)c(F)c3)n2)c1 [Working Example 165]	68
COc1cc(CCNc2nccc(-c3cccc(C(=O)NCCN4CCCC4)c3)n2)ccc1F [Working Example 166]	109

Second part, the compound after the results:

GPR52 agonist activity (%)	SMILES
68	CNC(=O)c1cccc(-c2cccc(OCCc3ccc(OC)c(OC)c3)n2)c1 [Working Example 167]
79	COc1ccc(CCOc2cccc(-c3cccc(C(=O)NCCCO)c3)n2)cc1OC [Working Example 170]
110	COc1ccc(CCOc2cccc(-c3cccc(C(=O)NCCC(N)=O)c3)n2)cc1OC [Working Example 175]
85	COc1ccc(CCOc2cccc(-c3cccc(C(=O)NCCc4ccncc4)c3)n2)cc1OC [Working Example 201]
97	COc1ccc(CCOc2cccc(-c3cccc(C(=O)NCCCn4ccnc4)c3)n2)cc1OC [Working Example 203]
67	COc1ccc(CCOc2cccc(-c3cccc(C(=O)NCCNc4ccccc4)c3)n2)cc1OC [Working Example 208]
94	COc1ccc(CCOc2cccc(-c3cccc(C(=O)Nc4ccccn4)c3)n2)cc1OC [Working Example 219]
65	COc1ccc(CCOc2cccc(-c3cccc(C(=O)Nc4ccc5ncccc5c4)c3)n2)cc1OC [Working Example 227]
58	COc1ccc(CCOc2cccc(-c3cccc(NC(=O)[C@@H]4CSC(=O)N4)c3)n2)cc1OC [Working Example 245]
57	COc1ccc(CCOc2cccc(-c3cccc(NC(=O)Cn4ccnc4)c3)n2)cc1OC [Working Example 302]
82	COc1ccc(CCOc2cccc(-c3cccc(NC(=O)CC4NCCc5ccccc54)c3)n2)cc1OC (stereo not shown) [Working Example 318]
